Data as given in ChEMBL document CHEMBL1130098, “4-Heterocyclylpiperidines as selective high-affinity ligands at the human dopamine D4 receptor” (J Med Chem, 1997).

What was measured:
D(4) dopamine receptor = molecular target: T1, D(4) dopamine receptor (Homo sapiens, UniProt P21917)
T1 sequence (P21917 whole entry): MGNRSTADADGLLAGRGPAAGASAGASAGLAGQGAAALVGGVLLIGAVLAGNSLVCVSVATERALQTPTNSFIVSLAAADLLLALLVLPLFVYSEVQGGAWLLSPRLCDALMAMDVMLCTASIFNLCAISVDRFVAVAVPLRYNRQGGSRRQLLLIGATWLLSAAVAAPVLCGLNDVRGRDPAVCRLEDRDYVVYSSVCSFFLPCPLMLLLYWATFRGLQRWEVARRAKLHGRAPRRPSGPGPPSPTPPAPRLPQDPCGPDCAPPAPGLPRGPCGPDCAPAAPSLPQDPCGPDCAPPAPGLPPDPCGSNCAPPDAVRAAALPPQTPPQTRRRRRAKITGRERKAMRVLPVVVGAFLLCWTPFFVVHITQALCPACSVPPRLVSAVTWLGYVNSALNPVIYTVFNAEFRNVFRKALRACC
Description: Ability to displace [3H]spiperone from human dopamine receptor D4 (hD4) receptor stably expressed in HEK293 cells.

D(3) dopamine receptor = D(3) dopamine receptor (Homo sapiens, UniProt P35462)
D(3) dopamine receptor, sequence (P35462 whole entry): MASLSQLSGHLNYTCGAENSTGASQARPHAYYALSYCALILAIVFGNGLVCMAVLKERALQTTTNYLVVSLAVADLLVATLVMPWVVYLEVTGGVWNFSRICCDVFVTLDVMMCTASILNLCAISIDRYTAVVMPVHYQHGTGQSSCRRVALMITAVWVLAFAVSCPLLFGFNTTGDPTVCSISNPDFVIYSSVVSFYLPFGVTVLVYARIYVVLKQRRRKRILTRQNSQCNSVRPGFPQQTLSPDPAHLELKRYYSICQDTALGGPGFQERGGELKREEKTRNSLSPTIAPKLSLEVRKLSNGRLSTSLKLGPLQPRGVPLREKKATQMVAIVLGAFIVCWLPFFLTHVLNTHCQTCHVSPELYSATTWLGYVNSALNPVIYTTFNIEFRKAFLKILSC
Description: Ability to displace [3H]spiperone from human dopamine receptor D3 (hD3) receptor stably expressed in HEK293 cells.

SMILES | Ki (D(4) dopamine receptor) | Ki (D(3) dopamine receptor)
c1ccc(CCN2CCN(c3cc(-c4ccccc4)[nH]n3)CC2)cc1 | 23 nM | 1200 nM
Clc1ccc(-c2cc(C3CCN(Cc4ccccc4)C3)[nH]n2)cc1 (configuration not stated) | 110 nM | 920 nM
Cc1cc(C2CCN(Cc3ccccc3)CC2)[nH]n1 | 470 nM | 3400 nM
c1ccc(CCN2CCC(c3cc(C4CCCCC4)n[nH]3)CC2)cc1 | 10 nM | 1200 nM
c1ccc(CCN2CCC(c3cc(-c4cccs4)[nH]n3)CC2)cc1 | 19 nM | 1100 nM
Cc1c(-c2ccc(Cl)cc2)nc(N)nc1C1CCN(CCc2ccccc2)CC1 | 4.7 nM | 1100 nM
Clc1ccc(-c2cc(C3CCN(Cc4ccccc4Cl)CC3)[nH]n2)cc1 | 20 nM | 1300 nM
c1ccc(CCN2CCC(c3cc(-c4ccncc4)n[nH]3)CC2)cc1 | 52 nM | > 4000 nM
Cc1c(-c2ccccc2)n[nH]c1C1=CCN(CCc2ccccc2)CC1 | 3.1 nM | 830 nM
Clc1ccc(-c2cc(C3CCCCN3Cc3ccccc3)[nH]n2)cc1 (configuration not stated) | 4800 nM | 1800 nM
c1ccc(CCN2CCC(c3cc(-c4cccnc4)n[nH]3)CC2)cc1 | 23 nM | > 4200 nM
c1ccc(CCN2CCC(c3cc(-c4ccccn4)[nH]n3)CC2)cc1 | 22 nM | 3600 nM
CN1CCC(c2cc(-c3ccc(Cl)cc3)[nH]n2)CC1 | 1200 nM | > 1900 nM
c1ccc(Cc2cc(C3CCN(Cc4ccccc4)CC3)[nH]n2)cc1 | 160 nM | 2100 nM
Clc1ccc(-c2cc(C3CCNCC3)[nH]n2)cc1 | > 3300 nM | > 4400 nM
c1ccc(CN2CCC(c3cc(-c4ccccc4)[nH]n3)CC2)cc1 | 11 nM | 1400 nM
Clc1ccc(-c2cc(C3CCN(Cc4cccc(Cl)c4)CC3)[nH]n2)cc1 | 60 nM | 4300 nM
CC1(c2cc(-c3ccc(Cl)cc3)[nH]n2)CCN(Cc2ccccc2)CC1 | 47 nM | 1300 nM

The remaining compounds from weak to strong by Ki (D(3) dopamine receptor), led by results:

Ki (D(4) dopamine receptor) | Ki (D(3) dopamine receptor) | SMILES
110 nM | 870 nM | Clc1ccc(-c2cc(C3CCN(CCCc4ccccc4)CC3)[nH]n2)cc1
13 nM | 720 nM | Clc1ccc(-c2cc(C3CCN(CC4CCCCC4)CC3)[nH]n2)cc1
930 nM | 600 nM | c1ccc(CCN2CCC3(CCc4c(-c5ccccc5)n[nH]c43)CC2)cc1
12 nM | 510 nM | O=C(/C=C(\O)c1ccc(Cl)cc1)C1CCN(Cc2ccccc2)CC1
350 nM | 510 nM | CC1(C(=O)/C=C(\O)c2ccc(Cl)cc2)CCN(Cc2ccccc2)CC1
1.6 nM | 430 nM | Cc1c(C2CCN(Cc3ccccc3)CC2)n[nH]c1-c1ccc(Cl)cc1
410 nM | 240 nM | Clc1ccc(-c2cc(C3CCCN(Cc4ccccc4)C3)[nH]n2)cc1 (configuration not stated)
9.1 nM | 160 nM | Clc1ccc(-c2cc(C3CCN(Cc4ccccc4)CC3)[nH]n2)cc1
1 nM | 140 nM | Nc1nc(-c2ccc(Cl)cc2)cc(C2CCN(Cc3ccccc3)CC2)n1
– | 80 nM | Clc1ccc(CN2CCC(c3cc(-c4ccc(Cl)cc4)no3)CC2)cc1
1.5 nM | 46 nM | CCc1c(C2CCN(Cc3ccccc3)CC2)n[nH]c1-c1ccc(Cl)cc1
